In patent US10434112B2, “Use of agonists of formyl peptide receptor 2 for treating dermatological diseases” (Allergan, Inc., priority 2013, dated 2019):

Key:
[1] = biological target: FPRL-1 (Homo sapiens (Human), UniProt P25090); assay: FPRL-1 Ga16-CHO EC50 (efficacy); format: cell-based; settings: for FPRL-1 Ga16-CHO (efficacy): value in brackets
[2] = biological target: human FPR2 receptor (Homo sapiens (Human), UniProt P25090); assay: FLIPR Ca+2 response in HEK-Gα16 cells stably expressing the human FPR2 receptor; format: cell-based; parameters: FPR2 (% eff): unit not given here; settings: Table 4; for FPR2 (% eff): value in brackets, given mostly as fraction
Method in brief: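 HEK-Gα16 cells stably expressing human FPR2, loaded with 2 μM Fluo-4 in HBSS/20 mM HEPES for 40 min at 37° C., then washed. Ligands added in HBSS/Hepes and Ca+2 responses recorded on FLIPR in relative fluorescence units.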

Sequence of human FPR2 receptor (P25090 whole entry): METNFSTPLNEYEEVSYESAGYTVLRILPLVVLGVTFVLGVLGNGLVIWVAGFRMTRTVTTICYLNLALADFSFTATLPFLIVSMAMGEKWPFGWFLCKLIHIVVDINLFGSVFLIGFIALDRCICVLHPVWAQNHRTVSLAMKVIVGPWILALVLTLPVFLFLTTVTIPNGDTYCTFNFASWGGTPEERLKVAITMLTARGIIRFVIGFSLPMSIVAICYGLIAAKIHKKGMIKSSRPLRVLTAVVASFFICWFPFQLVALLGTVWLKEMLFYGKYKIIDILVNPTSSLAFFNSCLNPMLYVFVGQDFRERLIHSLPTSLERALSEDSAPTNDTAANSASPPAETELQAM
Sequence of FPRL-1 (P25090 whole entry): as above

Compound | FPR2 (% eff) [2] | also measured
O=C(Nc1ccc(Br)cc1)NC(Cc1ccccc1)C(=O)O (stereo in doubt) [(2S)-2-({[(4- bromophenyl)amino]carbonyl}amino)- 3-phenylpro] [(2S)-2-({[(4-bromophenyl)amino]carbonyl}amino)-3-phenylpropanoic acid] | – | FPRL-1 Ga16-CHO (efficacy) ([1]; Table 1): 1.0
O=C(Nc1ccc(Br)cc1)NC(Cc1ccccc1)C(=O)O (stereo in doubt) [(2S)-2-({[(4-bromophenyl)amino]carbonyl}amino)-3-phenylpropanoic acid] | – | EC50 ([1]; Table 1): 31 nM
CC1(CCc2ccccc2)NC(=O)N(NC(=O)Nc2ccccc2F)C1=O (stereo not drawn) [1-(2-fluorophenyl)-3-[4-methyl-2,5-dioxo-4-(2-phenylethyl)imidazolidin-1-yl]urea] | – | FPRL-1 Ga16-CHO (efficacy) ([1]; Table 2): 0.94
CCOP(=O)(CNC(=O)[C@H](Cc1ccccc1)NC(=O)Nc1ccc(Br)cc1)OCC [Compound 118, diethyl ({[(2S)-2-{[(4-bromophenyl)carbamoyl]amino}-3-phenylpropanoyl]amino}methyl)phosphonate] | 0.93 | –
CC(C)C[C@H](NC(=O)Nc1ccc(Br)cc1)C(=O)NCC(=O)N(C)C [Compound 120, (2S)-2-{[(4-bromophenyl)carbamoyl]amino}-N-[2-(dimethylamino)-2-oxoethyl]-4-methylpentanamide] | 0.99 | –
CC(C)C[C@H](NC(=O)Nc1ccc(I)cc1)C(=O)O [Compound 121, (2S)-2-{[(4-iodophenyl)carbamoyl]amino}-4-methylpentanoic acid] | 0.93 | –
CCC[C@H](NC(=O)Nc1ccc(Br)cc1)C(=O)NCP(=O)(O)OCC [Compound 123, ethyl hydrogen ({[(2S)-2-{[(4-bromophenyl)carbamoyl]amino}pentanoyl]amino}methyl) phosphonate] | 0.96 | –
CCOP(=O)(O)CNC(=O)[C@H](Cc1ccccc1)NC(=O)Nc1ccc(Br)cc1 [Compound 126, ethyl hydrogen ({[(2S)-2-{[(4-bromophenyl)carbamoyl]amino}3-phenylpropanoyl]amino}methyl)phosphonate] | 1.0 | –
CSc1ccc(NC(=O)N[C@@H](CC(C)C)C(=O)O)cc1 [Compound 128, (2S)-4-methyl-2-({[4-(methylsulfanyl)phenyl]carbamoyl}amino)pentanoic acid] | 0.92 | –
CSc1ccc(NC(=O)N[C@@H](CC(C)C)C(=O)NCC(=O)O)cc1 [Compound 130, {[(2S)-4-methyl-2-({[4-(methylsulfanyl)phenyl]carbamoyl}amino)pentanoyl]amino}acetic acid] | 1.0 | EC50 [2]: 3 nM
CC(C)C[C@H](NC(=O)Nc1ccc(Br)cc1)C(=O)NCP(=O)(OC(C)C)OC(C)C [Compound 131, dipropan-2-yl({[(2S)-2-{[(4-bromophenyl)carbamoyl]amino}-4-methylpentanoyl]amino}methyl)phosphonate] | 1.0 | –
CCOP(=O)(CNC(=O)[C@H](CC(C)C)NC(=O)Nc1ccc(C(F)(F)F)cc1)OCC [Compound 134, diethyl ({[(2S)-4-methyl-2-({[4-(trifluoromethyl)phenyl]carbamoyl}amino)pentanoyl]amino}methyl)phosphonate] | 0.97 | –
CCOP(=O)(O)CNC(=O)[C@H](CC(C)C)NC(=O)Nc1ccc(C(F)(F)F)cc1 [Compound 135, ethyl hydrogen ({[(2S)-4-methyl-2-({[4-(trifluoromethyl)phenyl]carbamoyl}amino)pentanoyl]amino}methyl)phosphonate] | 0.91 | –
CC(C)C[C@H](NC(=O)Nc1ccc(C(F)(F)F)cc1)C(=O)NCc1nnn[nH]1 [Compound 136, (2S)-4-methyl-N-(1H-tetrazol-5-ylmethyl)-2-({[4-(trifluoromethyl)phenyl]carbamoyl}amino)pentanamide] | 0.96 | –
CCOP(=O)(CNC(=O)[C@H](CC(C)C)NC(=O)Nc1ccc(SC)cc1)OCC [Compound 138, diethyl ({[(2S)-4-methyl-2-({[4-(methylsulfanyl)phenyl]carbamoyl}amino)pentanoyl]amino}methyl)phosphonate] | 0.91 | –
CCC1(CCc2ccccc2C(=O)OC)NC(=O)N(NC(=O)Nc2ccc(Br)cc2)C1=O (stereo not drawn) [Compound 141, methyl 2-[2-(1-{[(4-bromophenyl)carbamoyl]amino}-4-ethyl-2,5-dioxoimidazolidin-4-yl)ethyl]benzoate] | 0.92 | –
CCC1(CCc2ccccc2C(=O)O)NC(=O)N(NC(=O)Nc2ccc(Br)cc2F)C1=O (stereo not drawn) [Compound 146, 2-[2-(1-{[(4-bromo-2-fluorophenyl)carbamoyl]amino}-4-ethyl-2,5-dioxoimidazolidin-4-yl)ethyl]benzoic acid] | 1.0 | –
CC(C)C1(CC(=O)NCCO)NC(=O)N(NC(=O)Nc2ccc(Br)cc2F)C1=O (stereo not drawn) [Compound 148, 2-[1-{[(4-bromo-2-fluorophenyl)carbamoyl]amino}-2,5-dioxo-4-(propan-2-yl)imidazolidin-4-yl]-N-(2-hydroxyethyl)acetamide] | 0.98 | –
CCOC(=O)CCC1(C(C)C)NC(=O)N(NC(=O)Nc2ccc(Br)cc2)C1=O (stereo not drawn) [Compound 149, ethyl 3-[1-{[(4-bromophenyl)carbamoyl]amino}-2,5-dioxo-4-(propan-2-yl)imidazolidin-4-yl]propanoate] | 0.94 | –
CC(C)C1(CCc2ccccc2C(=O)O)NC(=O)N(NC(=O)Nc2ccc(Br)cc2)C1=O (stereo not drawn) [Compound 151, 2-{2-[1-{[(4-bromophenyl)carbamoyl]amino}-2,5-dioxo-4-(propan-2-yl)imidazolidin-4-yl]ethyl}benzoic acid] | 1.0 | –
CCOP(=O)(CCNC(=O)CC1(C(C)C)NC(=O)N(NC(=O)Nc2ccc(Br)cc2)C1=O)OCC (stereo not drawn) [Compound 152, diethyl [2-({[1-{[(4-bromophenyl)carbamoyl]amino}-2,5-dioxo-4-(propan-2-yl)imidazolidin-4-yl]acetyl}amino)ethyl] phosphonate] | 1.0 | –
CCOC(=O)C1CCC2(CC1)NC(=O)N(NC(=O)Nc1ccc(Br)cc1)C2=O (stereo not drawn) [Compound 153, ethyl 3-{[(4-bromophenyl)carbamoyl]amino}-2,4-dioxo-1,3-diazaspiro[4.5]decane-8-carboxylate] | 0.99 | –
CC(C)C[C@H](NC(=O)Nc1ccc(Br)cc1)C(=O)N(C)CC(=O)OC(C)(C)C [Compound 154, tert-butyl {[(2S)-2-{[(4-bromophenyl)carbamoyl]amino}-4-methylpentanoyl](methyl)amino}acetate] | 0.85 | –
CC(C)C[C@H](NC(=O)Nc1ccc(Br)cc1)C(=O)N(C)CC(=O)O [Compound 155, {[(2S)-2-{[(4-bromophenyl)carbamoyl]amino}-4-methylpentanoyl](methyl)amino}acetic acid] | 1.0 | –

Continued, in another order:

FPR2 (% eff) [2] | Compound | also measured
1.0 | CCC[C@H](NC(=O)Nc1ccc(Br)cc1)C(=O)NCP(=O)(OC(C)C)OC(C)C [Compound 125, dipropan-2-yl ({[(2S)-2-{[(4-bromophenyl)carbamoyl]amino}pentanoyl]amino}methyl) phosphonate] | –
0.91 | CC(C)C[C@H](NC(=O)Nc1ccc(Br)cc1)C(=O)NCS(=O)(=O)O [Compound 127, {[(2S)-2-{[(4-bromophenyl)carbamoyl]amino}4-methylpentanoyl]amino} methanesulfonic acid] | –
0.86 | CC(C)C1(CO)NC(=O)N(NC(=O)Nc2ccc(Br)cc2)C1=O (stereo not drawn) [Compound 132, 1-(4-bromophenyl)-3[4-(hydroxymethyl)-2,5-dioxo-4-(propan-2-yl)imidazolidin-1-yl]urea] | –
1.0 | CC(C)C1(CC(=O)NCCO)NC(=O)N(NC(=O)Nc2ccc(Br)cc2)C1=O (stereo not drawn) [Compound 133, 2-[1-{[(4-bromophenyl)carbamoyl]amino}-2,5-dioxo-4-(propan-2-yl)imidazolidin-4-yl]-N-(2-hydroxyethyl)acetamide] | –
0.92 | CC(C)C[C@H](NC(=O)Nc1ccc(C(F)(F)F)cc1)C(=O)NC(C)(C)C(=O)O [Compound 139, 2-methyl-2-{[(2S)-4-methyl-2-({[4-(trifluoromethyl)phenyl]carbamoyl}amino)pentanoyl]amino}propanoic acid] | –
0.92 | CC(C)C1(CC(=O)NC(CO)CO)NC(=O)N(NC(=O)Nc2ccc(Br)cc2)C1=O (stereo not drawn) [Compound 142, 2-[1-{[(4-bromophenyl)carbamoyl]amino}-2,5-dioxo-4-(propan-2-yl)imidazolidin-4-yl]-N-(1,3-dihydroxypropan-2-yl)acetamide] | –
1.0 | CCC1(CCc2ccccc2C(=O)O)NC(=O)N(NC(=O)Nc2ccc(Br)cc2)C1=O (stereo not drawn) [Compound 143, 2-[2-(1-{[(4-bromophenyl)carbamoyl]amino}-4-ethyl-2,5-dioxoimidazolidin-4-yl)ethyl]benzoic acid] | –
0.91 | CSCC[C@H](NC(=O)Nc1ccc(Br)cc1)C(=O)NCC(=O)O [Compound 144, {[(2S)-2-{[(4-bromophenyl)carbamoyl]amino}-4-(methylsulfanyl)butanoyl]amino}acetic acid] | –
1.0 | CC(C)C1(CC(=O)NCCC(=O)O)NC(=O)N(NC(=O)Nc2ccc(Br)cc2F)C1=O (stereo not drawn) [Compound 145, 3-({[1-{[(4-bromo-2-fluorophenyl)carbamoyl]amino}-2,5-dioxo-4-(propan-2-yl)imidazolidin-4-yl]acetyl}amino)propanoic acid] | –
0.99 | CC(C)C1(CC(=O)NCCC(=O)O)NC(=O)N(NC(=O)Nc2ccc(Br)cc2)C1=O (stereo not drawn) [Compound 147, 3-({[1-{[(4-bromophenyl)carbamoyl]amino}-2,5-dioxo-4-(propan-2-yl)imidazolidin-4-yl]acetyl}amino)propanoic acid] | –
0.99 | CC(C)C[C@H](NC(=O)Nc1ccc(C(F)(F)F)cc1)C(=O)NCS(=O)(=O)O [Compound 237, {[(2S)-4-methyl-2-({[4-(trifluoromethyl)phenyl]carbamoyl}amino)pentanoyl]amino}methanesulfonic acid] | –
